This note sets out measurements from patent publication US20250188123A1, “PROTEASE INHIBITORS” (Regents of the University of Minnesota, priority 2022, published 2025).

Read-outs that look alike come from different tables or passages of the source.

Format in all cases: biochemical
One assay deals with T1, human caspase-3 (Homo sapiens, UniProt P42574).
T1 construct: made in house; host or cells: E. coli Rosetta 2 pLysS DE3
T1 sequence (P42574 29-277): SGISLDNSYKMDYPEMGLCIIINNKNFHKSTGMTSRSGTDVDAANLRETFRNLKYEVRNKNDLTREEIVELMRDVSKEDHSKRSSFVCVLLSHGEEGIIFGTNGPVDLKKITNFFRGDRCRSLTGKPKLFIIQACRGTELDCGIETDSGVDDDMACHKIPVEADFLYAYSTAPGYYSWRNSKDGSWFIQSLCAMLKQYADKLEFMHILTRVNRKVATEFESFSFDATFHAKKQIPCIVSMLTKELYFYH
In words: Fluorescent enzyme assay, Casp3 (AFC substrate AcDEVD-AFC). The source says:
Human recombinant Casp1, 6, 7, and 9 were purchased from BioVision (Milpitas/CA, USA). AFC fluorogenic substrates and control peptides (AcYVAD-CHO, AcVDVAD-CHO, AcDEVD-CHO, AcVEID-CHO, and AcLEHD-CHO) were purchased from Bachem (Torrance/CA, USA). The pET23b vector encoding human caspase-3 was a gift of Dr. Michelle Arkin at University of California, San Francisco. Expression and purification of Casp3 was guided by previously described protocols (Denault J-B, Salvesen G S., Current Protocols in Protein Science, 2002, 30(1), 21.13. 1-21.13. 15). Briefly, the plasmid was transformed into E. coli Rosetta 2 pLyss DE3 cells that were cultured at 1 L scale in shake flasks. Five hours post induction with IPTG, cells were harvested through centrifugation (4000 g for 10 minutes at 4° C.), lysed by sonication, and centrifuged again for 30 minutes at 20000 g. Supernatant was resuspended in buffer (100 mM Tris pH 8.0, 500 mM NaCl). Purification was achieved by nickel-affinity chromatography followed by ion-exchange chromatography. Protein was diluted to 0.5 mg/mL and stored at −80° C. in 100 mM Tris, pH 8.0 supplemented with 10% glycerol. The typical yield for the expression, isolation, and purification was approximately 3 mg/L. The DNA encoding human caspase-2 (hCASP2, amino acids 170-452, free of the N-terminal caspase activation and recruitment domain) open reading frame (ORF) was amplified via polymerase chain reaction (PCR) from full-length hCASP2 cDNA (Origene, Rockville, MD; Cat #SC321316) using following primers: forward, 5′-[…]-3′; reverse, 5′-[…]-3′. The PCR fragment was then cloned into the pET23b vector (Millipore Sigma, Burlington, MA), and DNA sequence was verified by classic Sanger sequencing analyses. Site-directed mutageneses were carried out using a QuikChange II XL site-directed mutagenesis kit (Agilent Technologies, Santa Clara, CA; Cat #200522) according to the manufacturer's instruction. Expression of recombinant hCASP2 was induced using 150 μM isopropyl-β-D-thiogalactopyranoside (IPTG) (Promega, Madison, WI) in the BL21(DE3) E. coli strain (Millipore Sigma) at 16° C. for 14 hours while shaking at 250 rpm. Cells were then harvested via centrifugation at 6,000 g, 4° C. for 15 minutes, followed by lysis via sonication. Proteins were initially purified using HisPur Ni-NTA resin (Thermo Fisher Scientific, Waltham, MA) followed by metal chelating chromatography (5 mL HiTrap Chelating HP columns (GE Healthcare Life Sciences, Piscataway, NJ)). Further purification was carried out using anion exchange chromatography (5 mL HiTrap Q HP columns (GE Healthcare Life Sciences)) for hCASP2. Proteins were stored in 1× phosphate-buffered saline (pH 7.4) at 10 mg/mL (concentration determined using a BCA assay (Thermo Fisher Scientific)), −80° C. until further use.
KM values were determined experimentally to be the following: Casp1: 5.9 μM; Casp2: 37.1 μM; Casp3: 7.6 μM; Casp6: 14.5 μM; Casp7: 13.8 μM; Casp9: 149.1 μM. Enzymes were diluted in buffer: 100 mM MES (pH 6.5) for Casp2 and or 100 mM HEPES (pH 7.0) for all other caspases, plus 150 mM NaCl, 0.1% CHAPS, 1.5% sucrose, 10 mM DTT. Enzyme concentrations were 0.05 U/well for Casp1, 6, and 7; 0.5 U/well for Casp9, 20 nM/well for Casp2, and 2 nM/well for Casp3. Enzyme in buffer (19 μL) was added per well in a black 384-well Corning 4514 assay plate. Test compounds were serially diluted in dimethyl sulfoxide (DMSO) and plated in duplicate into a Corning 3656 transfer plate. Test compound was added to assay plates in 0.5 μL aliquots per well and mixed 10 times using a BiomekFX (Beckman Coulter). Compound and enzyme mixture was incubated at 37° C. for 5 minutes for aldehyde warheads and 45 minutes for cyano warheads. […]

The next assay deals with T2, Human recombinant Casp7 (Homo sapiens, UniProt P55210).
T2 construct: purchased BioVision (Milpitas/CA, USA)
T2 sequence (P55210 1-303): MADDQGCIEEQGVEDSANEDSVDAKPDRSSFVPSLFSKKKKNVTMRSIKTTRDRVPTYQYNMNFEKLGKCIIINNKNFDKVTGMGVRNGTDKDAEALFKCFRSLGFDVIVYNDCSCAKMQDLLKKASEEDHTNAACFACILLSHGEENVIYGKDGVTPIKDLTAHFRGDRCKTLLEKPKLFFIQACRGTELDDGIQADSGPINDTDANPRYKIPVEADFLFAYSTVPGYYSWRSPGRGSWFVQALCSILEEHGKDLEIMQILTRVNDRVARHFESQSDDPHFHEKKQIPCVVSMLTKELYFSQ
In words: In vitro caspase panel assay, Casp7. As to conditions: Casp2 over Casp7, caspase panel. The source says:
(§1) Human recombinant Casp1, 6, 7, and 9 were purchased from BioVision (Milpitas/CA, USA). AFC fluorogenic substrates and control peptides (AcYVAD-CHO, AcVDVAD-CHO, AcDEVD-CHO, AcVEID-CHO, and AcLEHD-CHO) were purchased from Bachem (Torrance/CA, USA). The pET23b vector encoding human caspase-3 was a gift of Dr. Michelle Arkin at University of California, San Francisco. Expression and purification of Casp3 was guided by previously described protocols (Denault J-B, Salvesen G S., Current Protocols in Protein Science, 2002, 30(1), 21.13. 1-21.13. 15). Briefly, the plasmid was transformed into E. coli Rosetta 2 pLyss DE3 cells that were cultured at 1 L scale in shake flasks. […] The typical yield for the expression, isolation, and purification was approximately 3 mg/L. The DNA encoding human caspase-2 (hCASP2, amino acids 170-452, free of the N-terminal caspase activation and recruitment domain) open reading frame (ORF) was amplified via polymerase chain reaction (PCR) from full-length hCASP2 cDNA (Origene, Rockville, MD; Cat #SC321316) using following primers: forward, 5′-[…]-3′; reverse, 5′-[…]-3′. […] Proteins were stored in 1× phosphate-buffered saline (pH 7.4) at 10 mg/mL (concentration determined using a BCA assay (Thermo Fisher Scientific)), −80° C. until further use. […]

The next assay deals with T3, Human recombinant Casp9 (Homo sapiens, UniProt P55211).
T3 construct: purchased BioVision (Milpitas/CA, USA)
T3 sequence (P55211 1-416): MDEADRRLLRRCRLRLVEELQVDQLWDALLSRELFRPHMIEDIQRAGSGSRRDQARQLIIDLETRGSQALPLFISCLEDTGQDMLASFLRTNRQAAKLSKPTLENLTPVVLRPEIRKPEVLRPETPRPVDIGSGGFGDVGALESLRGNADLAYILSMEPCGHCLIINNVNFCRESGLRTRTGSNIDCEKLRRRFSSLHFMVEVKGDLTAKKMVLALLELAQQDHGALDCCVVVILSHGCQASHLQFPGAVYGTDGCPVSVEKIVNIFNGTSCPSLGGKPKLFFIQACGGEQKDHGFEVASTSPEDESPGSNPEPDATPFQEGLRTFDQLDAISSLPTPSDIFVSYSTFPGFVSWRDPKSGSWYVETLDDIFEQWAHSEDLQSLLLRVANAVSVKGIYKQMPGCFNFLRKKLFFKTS
The assay can be described thus: In vitro caspase panel assay, Casp9. As to conditions: Casp2 over Casp9, caspase panel.
Description: as §1

For the next assay, the target named is cathepsin B (Homo sapiens, UniProt P07858). In words: Activity at cathepsin B proteolytic enzyme.

Take `CC(=O)N[C@H](C(=O)NC(CC(=O)O)C(=O)N[C@H](C(=O)N1CCc2cc(C)ccc2C1C(=O)N[C@H](C=O)CC(=O)O)C(C)C)C(C)C` (stereo in doubt) [Compound 30a, (R)-3-((S)-2-acetamido-3-methylbutanamido)-4-(((S)-1-((S)-1-(((S)-1-carboxy-3-oxopropan-2-yl)carbamoyl)-6-methyl-3,4-dihydroisoquinolin-2(1H)-yl)-3-methyl-1-oxobutan-2-yl)amino)-4-oxobutanoic acid, reference compound]: the Ki at human caspase-3 (mean ± SEM of N independent experiments, each in duplicate or triplicate, read-out: pKi ± SEM Casp 3 (converted)) is > 100 µM.

Consider `CC(=O)N[C@H](C(=O)N[C@@H](CC(=O)O)C(=O)N[C@H](C(=O)N1CCc2cc(C)ccc2[C@H]1C(=O)N[C@H](C=O)CC(=O)O)C(C)C)C(C)C` [Compound 30b, (S)-3-((S)-2-acetamido-3-methylbutanamido)-4-(((S)-1-((S)-1-(((S)-1-carboxy-3-oxopropan-2-yl)carbamoyl)-6-methyl-3,4-dihydroisoquinolin-2(1H)-yl)-3-methyl-1-oxobutan-2-yl)amino)-4-oxobutanoic acid, reference compound], for which, at human caspase-3 (mean ± SEM of N independent experiments, each in duplicate or triplicate), the “pKi ± SEM Casp 3” value is 6.04 ± 0.06.

As for `Cc1ccc2c(c1)CCN(C(=O)[C@@H](NC(=O)[C@H](CCCC(=O)O)NC(=O)C1Cc3ccccc3N1)C(C)C)[C@@H]2C(=O)N[C@H](C#N)CC(=O)O` (stereo partly drawn) [Compound 1, (8)-6-(((S)-1-((8)-1-(((S)-2-carboxy-1-cyanoethyl)carbamoyl)-6-methyl-3,4-dihydroisoquinolin-2(1H)-yl)-3-methyl-1-oxobutan-2-yl)amino)-5-((S)-indoline-2-carboxamido)-6-oxohexanoic acid], on human caspase-3, the Ki is 0.933 µM. In addition, the “selective versus Casp7” value on Human recombinant Casp7 is listed as > 2000 fold. The “selective versus Casp9” value at Human recombinant Casp9 was > 2000 fold. For the same molecule, at cathepsin B, the “activity at cathepsin B” value was “weak activity”.
